Data published in patent publication US9622474B2, “N-(substituted)-5-fluoro-4-imino-3-methyl-2-oxo-3,4-dihydropyrimidine-1(2H)-carboxylate derivatives” (Adama Makhteshim Ltd., priority 2012, dated 2017).

Key:
[1] = tested on: Mycosphaerella graminicola; Anamorph: Septoria tritici; Bayer Code SEPTTR; experiment: Fungicidal activity vs. leaf blotch of wheat (SEPTTR), one-day protectant (1DP); type: in vivo, Septoria tritici on wheat plants (variety Yuma); conditions: rating of % disease control vs untreated, inoculated plants
Procedure: (§1) Example A: Evaluation of Fungicidal Activity: Leaf Blotch of Wheat (Mycosphaerella graminicola; Anamorph: Septoria tritici; Bayer Code SEPTTR):
(§2) Wheat plants (variety Yuma) were grown from seed in a greenhouse in 50% mineral soil/50% soil-less Metro mix until the first leaf was fully emerged, with 7-10 seedlings per pot. These plants were inoculated with an aqueous spore suspension of Septoria tritici either prior to or after fungicide treatments. After inoculation the plants were kept in 100% relative humidity (one day in a dark dew chamber followed by two to three days in a lighted dew chamber) to permit spores to germinate and infect the leaf. The plants were then transferred to a greenhouse for disease to develop.
(§3) The following table presents the activity of typical compounds of the present disclosure when evaluated in these experiments. The effectiveness of the test compounds in controlling disease was determined by assessing the severity of disease on treated plants, then converting the severity to percent control based on the level of disease on untreated, inoculated plants.

[2] = tested on: Mycosphaerella graminicola; Anamorph: Septoria tritici; Bayer Code SEPTTR; experiment: Fungicidal activity vs. leaf blotch of wheat (SEPTTR), three-day curative (3DC); type: in vivo, Septoria tritici on wheat plants (variety Yuma); conditions: rating of % disease control vs untreated, inoculated plants
Procedure: as §1, §2, §3

| Structure (SMILES) | SEPTTR 100 PPM 1DP [1] | SEPTTR 100 PPM 3DC [2] | melting point |
| --- | --- | --- | --- |
| Cn1c(=N)c(F)cn(C(=O)Oc2ccccc2)c1=O [Compound 4] | A (76-100) | A (76-100) | 86.4 to 87.6 °C |
| COc1ccc(OC(=O)/N=c2/c(F)cn(C(=O)Oc3ccc(OC)cc3)c(=O)n2C)cc1 [Compound 2] | A (76-100) | A (76-100) | 161.8 to 165.6 °C |
| COc1ccc(OC(=O)n2cc(F)c(=N)n(C)c2=O)cc1 [Compound 1, 4-methoxyphenyl 5-fluoro-4-imino-3-methyl-2-oxo-3,4-dihydropyrimidine-1(2H)-carboxylate] | A (76-100) | A (76-100) | 135.6 to 137.1 °C |
| Cc1ccc(OC(=O)n2cc(F)c(=N)n(C)c2=O)cc1 [Compound 3] | A (76-100) | A (76-100) | 109 to 110.2 °C |
